Measurements taken from patent US4699904A, “Tetrazolyl derivatives of β-lactams useful as elastase inhibitors” (Merck & Co., Inc., priority 1985, dated 1987).

Target: T1, Human Polymorphonuclear Leukocyte Elastase (Homo sapiens, UniProt P08246)
T1 construct: Crude extract of human polymorphonuclear leukocytes (PMN) containing elastase activity; from tissue; host or cells: human polymorphonuclear leukocytes (crude extract)
T1 sequence (P08246 30-247 limits assumed): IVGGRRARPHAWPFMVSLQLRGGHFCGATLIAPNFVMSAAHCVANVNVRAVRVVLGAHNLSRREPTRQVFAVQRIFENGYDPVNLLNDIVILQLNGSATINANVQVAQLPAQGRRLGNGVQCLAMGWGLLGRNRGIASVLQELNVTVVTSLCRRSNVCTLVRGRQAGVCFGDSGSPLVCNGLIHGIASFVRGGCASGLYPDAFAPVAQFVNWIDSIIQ
Test: Inhibition of human polymorphonuclear leukocyte elastase via hydrolysis of N-t-Boc-alanyl-alanyl-prolylalanine-p-nitroanilide
Assay type: biochemical
Settings: crude PMN extract, Boc-AAPAN substrate, pH 7.5
Experimental: Protocol Enzyme Assays for the Inhibition of Human Polymorphonuclear Leukocyte Elastase Via Hydrolysis of N-t-Boc-alanyl-alanyl-prolylalanine-p-nitroanilide Reagents:
0.05M TES (N-tris[hydroxymethyl]methyl-2-amino-ethanesulfonic acid) Buffer, pH 7.5.
0.2 mM N-t-Boc-alanyl-alanyl-prolyl-alanine-p-nitroanilide (Boc-AAPAN).
To prepare substrate, the solid (m.w. 550) was first dissolved in 10.0 ml DMSO. Buffer at pH 7.5 was then added to a final volume of 100 ml.
Crude extract of human polymorphonuclear leukocytes (PMN) containing elastase activity.
Inhibitors (cephalosporin sulfone esters) to be tested dissolved in DMSO just before use.
To 1.0 ml of 0.2 mM Boc-AAPAN in a cuvette, 0.01-0.1 ml of DMSO with or without inhibitor was added. After mixing, a measurement was taken at 410 mμ to detect any spontaneous hydrolysis due to presence of test compound. 0.05 Milliliters of PMN extract was then added and the ΔOD/min at 410 mμ was measured and recorded. Beckman model 35 spectrophotometer was used.
Results were reported as ED50, i.e., effective dosage in micrograms per milliliter (μg/ml) for 50% inhibition of the enzyme activity 2 minutes after zero time.
The elastase activity in the crude PMN extract may vary from one preparation to another. A control of each new batch is run, and the volume added in the assay procedure is adjusted according to activity.

[1] = Table I, 50% inhibition 2 minutes after zero time
[2] = Table III, upper part, 2 minutes after zero time
[3] = Table II, 50% inhibition 2 minutes after zero time
[4] = Table III, lower part, 2 minutes after zero time

Row | Compound | IC50 [1] [nM] | IC50 [3] [nM] | further results
1 | COc1ccc(Cn2nnnc2C2=C(COC(=O)N(C)C)CS(=O)(=O)[C@@H]3[C@@H](OC)C(=O)N23)cc1 [R^1=OCH3, A=(CH3)2NCOO, R=PMB, Q^1=H] | 1420 | – | –
2 | COc1ccc(Cn2nnnc2[C@@H]2N3C(=O)[C@@H](NC(=O)C(F)(F)F)C3S(=O)(=O)C2(C)C)cc1 (some centres unmarked) [drawing 31, n=2] | – | – | IC50 [2]: 1020 nM
3 | COc1ccc(Cn2nnnc2C2=C(COC(C)=O)CS(=O)(=O)[C@@H]3[C@@H](OC)C(=O)N23)cc1 [R^1=OCH3, A=CH3COO, R=PMB, Q^1=H, 3-acetoxymethyl-7α-methoxy-4-[1-(p-methoxybenzyl)tetrazol-5-yl]-3-cephem-1,1-dioxide] | 1730 | – | –
4 | COc1ccc(Cn2nnnc2C2N3C(=O)C(NC(=O)C(F)(F)F)C3SC2(C)C)cc1 (centres unmarked) [drawing 32, n=0] | – | – | IC50 [4]: 21900 nM
5 | COc1ccc(Cn2nnnc2[C@@H]2N3C(=O)[C@@H](NC(=O)C(F)(F)F)C3SC2(C)C)cc1 (some centres unmarked) [drawing 31, n=0] | – | – | IC50 [2]: 4380 nM
6 | CO[C@H]1C(=O)N2C(c3nnn(Cc4ccc(C(=O)OC(C)(C)C)cc4)n3)=C(COC(C)=O)CS(=O)(=O)[C@H]12 [3-acetoxymethyl-7α-methoxy-4-[2-(p-t-butoxycarbonylbenzyl)tetrazol-5-yl]-3-cephem-1,1-dioxide] | – | 75 | –
7 | CO[C@H]1C(=O)N2C(c3nnn(Cc4ccc(C(=O)O)cc4)n3)=C(COC(C)=O)CS(=O)(=O)[C@H]12 [3-acetoxymethyl-7α-methoxy-4-[2-(-hydroxycarbonylbenzyl)tetrazol-5-yl]-3-cephem-1,1-dioxide] | – | 419 | –
8 | COc1ccc(Cn2nnnc2C2=C(COC(=O)NCc3ccccc3)CS(=O)(=O)[C@@H]3[C@@H](OC)C(=O)N23)cc1 [R^1=OCH3, A=.phi.CH2NHCOO, R=PMB, Q^1=H, 3-(N-benzyl-carbamoyloxy-methyl)-7α-methoxy-4-(1-p-methoxybenzyl-tetrazol-5-yl)-3-cephem-1,1-dioxide] | 541 | – | –
9 | COc1ccc(Cn2nnnc2[C@@H]2N3C(=O)[C@@H](NC(=O)C(F)(F)F)C3[S+]([O-])C2(C)C)cc1 (some centres unmarked) [drawing 31, n=1] | – | – | IC50 [2]: 4230 nM
10 | CO[C@H]1C(=O)N2C(c3nnn[nH]3)=C(COC(C)=O)CS(=O)(=O)[C@H]12 [R^1=OCH3, A=CH3COO, R=H, Q^1=H, 3-Acetoxymethyl-7α-methoxy-4-(tetrazol-5-yl)-3-cephem-1,1-dioxide] | 58300 | – | –
11 | CO[C@H]1C(=O)N2C(c3nnn[nH]3)=C(COC(=O)N(C)C)CS(=O)(=O)[C@H]12 [R^1=OCH3, A=(CH3)2NCOO, R=H, Q^1=H] | 5370 | – | –
12 | COc1ccc(Cn2nnnc2C2N3C(=O)C(NC(=O)C(F)(F)F)C3S(=O)(=O)C2(C)C)cc1 (centres unmarked) [drawing 32, n=2] | – | – | IC50 [4]: 409 nM

More lines, main results first:

Row | IC50 [1] [nM] | IC50 [3] [nM] | Compound | further results
13 | – | 628 | CO[C@H]1C(=O)N2C(c3nnn(Cc4ccccc4C(=O)O)n3)=C(COC(C)=O)CS(=O)(=O)[C@H]12 | –
14 | – | 7470 | CO[C@H]1C(=O)N2C(c3nnn(CC(=O)O)n3)=C(COC(C)=O)CS(=O)(=O)[C@H]12 [Table II: A=CH3COO, R=CH2COOH, Q^1=H] | –
15 | – | 560 | CO[C@H]1C(=O)N2C(c3nnn(C)n3)=C(COC(C)=O)CS(=O)(=O)[C@H]12 [Table II: A=CH3COO, R=CH3, Q^1=H] | –
16 | – | 562 | CO[C@H]1C(=O)N2C(c3nnn(Cc4ccccc4C(=O)OC(C)(C)C)n3)=C(COC(C)=O)CS(=O)(=O)[C@H]12 | –
17 | 9210 | – | CO[C@H]1C(=O)N2C(c3nnn[nH]3)=C(COC(=O)NCc3ccccc3)CS(=O)(=O)[C@H]12 [R^1=OCH3, A=.phi.CH2NHCOO, R=H, Q^1=H, 3-(N-Benzyl-carbamoyloxy-methyl)-7α-methoxy-4-(1H-tetrazol-5-yl)-3-cephem-1,1-dioxide] | –
